Structures are written as SMILES.

In general, EC50 refers to the concentration that produces a half-maximal response.

Assay [1] has as its system HCV genotype 1a (H77 strain) replicon in HUH-7 cells. The assay is described as follows: HCV replicon luciferase reporter assay, genotype 1a. Type of assay: cell-based. Particulars: Hepatitis C virus, 72 h, genotype 1a replicon, 3 days incubation, read-out: LE_1a (EC50, range). The text has this: An HCV replicon whole cell system was established as described by Lohmann V, Korner F, Koch J, Herian U, Theilmann L, Bartenschlager R., Science 285(5424):110-3 (1999) and modified to introduce a luciferase reporter, as first described by Krieger et al (Krieger N, Lohmann V, and Bartenschlager R, J. Virol. 75(10):4614-4624 (2001)). CDNA encoding a humanized form of the Renilla luciferase gene and a linker sequence fused directly to the 3′-end of the luciferase gene were introduced into the replicon construct using an Asc1 restriction site located in core, directly upstream of the neomycin marker gene. The adaptive mutation at position 1179 (serine to isoleucine) was also introduced (Blight K J, Kolykhalov, A A, Rice, C M, Science 290(5498):1972-1974). A stable cell line constitutively expressing this HCV replicon construct was generated by first linearizing plasmid DNAs with ScaI. RNA transcripts were synthesized in vitro using the T7 MegaScript transcription kit (Ambion, Austin, Tex.) according to manufacturer's directions. In vitro transcripts of the cDNA were transfected into the human hepatoma cell line, HUH-7. […] Resulting cell lines were characterized for positive and negative strand RNA production and protein production over time.
A stable HCV replicon luciferase reporter cell line representing the genotype 1a H77 strain (Yanagi M, Purcell R H, Emerson S U, et al. Transcripts from a single full-length cDNA clone of hepatitis C virus are infectious when directly transfected into the liver of a chimpanzee. Proc Natl Acad Sci USA 1997; 94(16):8738-8743) was generated as described previously for the genotype 1b (Con1) replicon luciferase cell line. The replicon construct was modified by introducing mutations were introduced into the genes encoding the NS3 helicase domain (proline replaced by leucine at position 1496) and NS5A (serine to isoleucine at position 2204) to improve replication in cell culture.
HCV replicon luciferase assays were developed to monitor the inhibitory effects of compounds described in the disclosure on HCV genotypes 1a and 1b viral replication. HUH-7 cells, constitutively expressing the HCV replicon, were grown in Dulbecco's Modified Eagle Media (DMEM) (Gibco-BRL) containing 10% Fetal calf serum (FCS) (Sigma) and 1 mg/mL G418 (Gibco-BRL). Compounds were serially diluted 3 folds in DMSO for a twenty-point titration and subsequently transferred to sterile 384-well tissue-culture treated plates (Corning cat #3571). The plates were then seeded with 50 μL of cells at a density of 3.0×10^3 cells/well in DMEM containing 4% FCS (final DMSO concentration at 0.5%). After 3 days incubation at 37° C., cells were analyzed for Renilla Luciferase activity using the EnduRen as substrate (Promega cat #E6485). The EnduRen substrate was diluted in DMEM and then added to the plates to a final concentration of 7.5 μM. The plates were incubated for 2 hrs at 37° C. and then read immediately for 30 seconds with Viewlux Imager (PerkinElmer) using a luminescence program. To assess cytotoxicity of compounds, CC50 values were generated by multiplexing the EnduRen-containing plates with Cell Titer-Blue (Promega, cat # G8082). Cell-Titer Blue (3 μL) was added to each well and incubated for 8 hrs at 37° C. The fluorescence signal from each well was read, with an excitation wavelength at 525/10 nm and an emission wavelength of 598/10 nm, using the Viewlux Imager.
The EC50 values for compounds were calculated by using a four-parameter logistic equation: y=A+((B−A)/(1+((C/x)^D))), where A and B denotes minimal and maximal % inhibition, respectively, C is the EC50, D is the hill slope and x represents compound concentration.

Assay [2] concerns HCV genotype 1b (Con1) replicon in HUH-7 cells. Nature of the assay: HCV replicon luciferase reporter assay, genotype 1b. The class given is cell-based. The settings on record: Hepatitis C virus, 72 h, genotype 1b replicon, 3 days incubation, read-out: LE_1b (EC50, range). The method in brief: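 Twenty-point, threefold compound titrations (0.5% DMSO) were incubated 3 days at 37 °C with 3.0×10^3 HUH-7 cells/well in 4% FCS. The cells stably carried luciferase replicons: genotype 1b Con1 (S1179I) or 1a H77 (NS3 P1496L, NS5A S2204I). Renilla signal was read after 2 h with 7.5 μM EnduRen, and EC50 was taken from a four-parameter logistic fit. Cytotoxicity (CC50) was measured by Cell Titer-Blue, 8 h.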
On the technique in general: In antiviral work, replicon cells carry a viral genome segment that copies itself.

For the compound `COC[C@@H]1CCCC/C=C\[C@@H]2C[C@@]2(C(=O)NS(=O)(=O)C2(C)CC2)NC(=O)[C@@H]2C[C@@H](Oc3nccc4cc(OC)ccc34)CN2C(=O)[C@H]1NC(=O)OC(C)(C)C(F)(F)F` [Compound 1001, 1,1,1-trifluoro-2-methylpropan-2-yl ((2R,6S,7R,13aS,14aR,16aS,Z)-2-((6-methoxyisoquinolin-1-yl)oxy)-7-(methoxymethyl)-14a-(((1-methylcyclopropyl)sulfonyl)carbamoyl)-5,16-dioxo-1,2,3,5,6,7,8,9,10,11,13a,14,14a,15,16,16a-hexadecahydrocyclopropa[e]pyrrolo[1,2-a][1,4]diazacyclopentadecin-6-yl)carbamate], the values for the concentration for a half-maximal effect (EC50) in assay [1] and in assay [2] were 1.01 to 5 nM and 0.51 to 1 nM, respectively.

Consider `COC[C@@H]1CCCC/C=C\[C@@H]2C[C@@]2(C(=O)NS(=O)(=O)C2(C)CC2)NC(=O)[C@@H]2C[C@@H](Oc3ncc(OC)c4ccccc34)CN2C(=O)[C@H]1NC(=O)OC(C)(C)C(F)(F)F` [Compound 1002, 1,1,1-trifluoro-2-methylpropan-2-yl ((2R,6S,7R,13aS,14aR,16aS,Z)-2-((4-methoxyisoquinolin-1-yl)oxy)-7-(methoxymethyl)-14a-(((1-methylcyclopropyl)sulfonyl)carbamoyl)-5,16-dioxo-1,2,3,5,6,7,8,9,10,11,13a,14,14a,15,16,16a-hexadecahydrocyclopropa[e]pyrrolo[1,2-a][1,4]diazacyclopentadecin-6-yl)carbamate], for which the EC50 was 0.51 to 1 nM in assay [1] and 0.1 to 0.5 nM in assay [2].

Take `COC[C@@H]1C[C@H](C)CC/C=C\[C@@H]2C[C@@]2(C(=O)NS(=O)(=O)C2CC2)NC(=O)[C@@H]2C[C@@H](Oc3ncc(OC)c4ccccc34)CN2C(=O)[C@H]1NC(=O)OC(C)(C)C` [Compound 1003, tert-butyl ((2R,6S,7R,9R,13aS,14aR,16aS,Z)-14a-((cyclopropylsulfonyl)carbamoyl)-2-((4-methoxyisoquinolin-1-yl)oxy)-7-(methoxymethyl)-9-methyl-5,16-dioxo-1,2,3,5,6,7,8,9,10,11,13a,14,14a,15,16,16a-hexadecahydrocyclopropa[e]pyrrolo[1,2-a][1,4]diazacyclopentadecin-6-yl)carbamate]: the concentration for a half-maximal effect (EC50) lay in the range of 0.51 to 1 nM in assay [1] and 0.1 to 0.5 nM in assay [2].

For `COC[C@@H]1C[C@@H](C)CC/C=C\[C@@H]2C[C@@]2(C(=O)NS(=O)(=O)C2CC2)NC(=O)[C@@H]2C[C@@H](Oc3ncc(OC)c4ccccc34)CN2C(=O)[C@H]1NC(=O)OC(C)(C)C` [Compound 1004, tert-butyl ((2R,6S,7R,9S,13aS,14aR,16aS,Z)-14a-((cyclopropylsulfonyl)carbamoyl)-2-((4-methoxyisoquinolin-1-yl)oxy)-7-(methoxymethyl)-9-methyl-5,16-dioxo-1,2,3,5,6,7,8,9,10,11,13a,14,14a,15,16,16a-hexadecahydrocyclopropa[e]pyrrolo[1,2-a][1,4]diazacyclopentadecin-6-yl)carbamate], the half-maximal effective concentration (EC50) in assay [1] and in assay [2] was 1.01 to 5 nM in each case.

As for `COC[C@@H]1C[C@H](C)CC/C=C\[C@@H]2C[C@@]2(C(=O)NS(=O)(=O)C2(C)CC2)NC(=O)[C@@H]2C[C@@H](Oc3nccc4cc(OC)ccc34)CN2C(=O)[C@H]1NC(=O)OC(C)(C)C` [Compound 1005, tert-butyl ((2R,6S,7R,9R,13aS,14aR,16aS,Z)-2-((6-methoxyisoquinolin-1-yl)oxy)-7-(methoxymethyl)-9-methyl-14a-(((1-methylcyclopropyl)sulfonyl)carbamoyl)-5,16-dioxo-1,2,3,5,6,7,8,9,10,11,13a,14,14a,15,16,16a-hexadecahydrocyclopropa[e]pyrrolo[1,2-a][1,4]diazacyclopentadecin-6-yl)carbamate], the EC50 in assay [1] was 1.01 to 5 nM; in assay [2], 0.1 to 0.5 nM.

Consider `COC[C@@H]1C[C@@H](C)CC/C=C\[C@@H]2C[C@@]2(C(=O)NS(=O)(=O)C2(C)CC2)NC(=O)[C@@H]2C[C@@H](Oc3nccc4cc(OC)ccc34)CN2C(=O)[C@H]1NC(=O)OC(C)(C)C` [Compound 1006, tert-butyl ((2R,6S,7R,9S,13aS,14aR,16aS,Z)-2-((6-methoxyisoquinolin-1-yl)oxy)-7-(methoxymethyl)-9-methyl-14a-(((1-methylcyclopropyl)sulfonyl)carbamoyl)-5,16-dioxo-1,2,3,5,6,7,8,9,10,11,13a,14,14a,15,16,16a-hexadecahydrocyclopropa[e]pyrrolo[1,2-a][1,4]diazacyclopentadecin-6-yl)carbamate], for which the EC50 in assay [1] fell in the range of 5.01 to 35 nM; in assay [2] it was 1.01 to 5 nM.

For the compound `COC[C@@H]1CCCC/C=C\[C@@H]2C[C@@]2(C(=O)NS(=O)(=O)C2(C)CC2)NC(=O)[C@@H]2C[C@@H](Oc3ncc(OC)c4ccccc34)CN2C(=O)[C@H]1NC(=O)OC(C)(C)C` [Compound 1007, tert-butyl ((2R,6S,7R,13aS,14aR,16aS,Z)-2-((4-methoxyisoquinolin-1-yl)oxy)-7-(methoxymethyl)-14a-(((1-methylcyclopropyl)sulfonyl)carbamoyl)-5,16-dioxo-1,2,3,5,6,7,8,9,10,11,13a,14,14a,15,16,16a-hexadecahydrocyclopropa[e]pyrrolo[1,2-a][1,4]diazacyclopentadecin-6-yl)carbamate], the EC50 in assay [1] was 1.01 to 5 nM; in assay [2], 0.51 to 1 nM.

As to `COC[C@@H]1C[C@@H](C)CC/C=C\[C@@H]2C[C@@]2(C(=O)NS(=O)(=O)C2CC2)NC(=O)[C@@H]2C[C@@H](Oc3nccc4cc(OC)ccc34)CN2C(=O)[C@H]1NC(=O)OC(C)(C)C` [Compound 1008, tert-butyl ((2R,6S,7R,9S,13aS,14aR,16aS,Z)-14a-((cyclopropylsulfonyl)carbamoyl)-2-((6-methoxyisoquinolin-1-yl)oxy)-7-(methoxymethyl)-9-methyl-5,16-dioxo-1,2,3,5,6,7,8,9,10,11,13a,14,14a,15,16,16a-hexadecahydrocyclopropa[e]pyrrolo[1,2-a][1,4]diazacyclopentadecin-6-yl)carbamate], the concentration for a half-maximal effect (EC50) in assay [1] and in assay [2] was 1.01 to 5 nM each time.

With `COC[C@@H]1C[C@H](C)CC/C=C\[C@@H]2C[C@@]2(C(=O)NS(=O)(=O)C2CC2)NC(=O)[C@@H]2C[C@@H](Oc3nccc4cc(OC)ccc34)CN2C(=O)[C@H]1NC(=O)OC(C)(C)C` [Compound 1009, tert-butyl ((2R,6S,7R,9R,13aS,14aR,16aS,Z)-14a-((cyclopropylsulfonyl)carbamoyl)-2-((6-methoxyisoquinolin-1-yl)oxy)-7-(methoxymethyl)-9-methyl-5,16-dioxo-1,2,3,5,6,7,8,9,10,11,13a,14,14a,15,16,16a-hexadecahydrocyclopropa[e]pyrrolo[1,2-a][1,4]diazacyclopentadecin-6-yl)carbamate], the half-maximal effective concentration (EC50) in assay [1] and in assay [2] was 1.01 to 5 nM each time.

Regarding `COC[C@@H]1C[C@H](C)CC/C=C\[C@@H]2C[C@@]2(C(=O)NS(=O)(=O)C2(C)CC2)NC(=O)[C@@H]2C[C@@H](Oc3ncc(OC)c4ccccc34)CN2C(=O)[C@H]1NC(=O)OC(C)(C)C` [Compound 1010, tert-butyl ((2R,6S,7R,9R,13aS,14aR,16aS,Z)-2-((4-methoxyisoquinolin-1-yl)oxy)-7-(methoxymethyl)-9-methyl-14a-(((1-methylcyclopropyl)sulfonyl)carbamoyl)-5,16-dioxo-1,2,3,5,6,7,8,9,10,11,13a,14,14a,15,16,16a-hexadecahydrocyclopropa[e]pyrrolo[1,2-a][1,4]diazacyclopentadecin-6-yl)carbamate], the EC50 in assay [1] is 0.51 to 1 nM; in assay [2], 0.1 to 0.5 nM.

The values above are taken from patent publication US9580463B2 (BRISTOL-MYERS SQUIBB COMPANY, priority 2013, dated 2017).
